Several values for one entry are separate records, joined by “and”; a condition that tells them apart may be missing. Identical values can stand only once.
Tests used:
[1] = tested on: NCI-H358 (KRAS^G12C/WT, NSCLC) xenograft; assay: Subcutaneous xenograft antitumor activity; type: in vivo, mouse; conditions: NCI-H358 (25 mg/kg)
Description: (§1) To generate subcutaneous CDX, each mouse was inoculated at the right flank with tumor cells (2 × 10^6 − 1 × 10^7) in 100 to 200 µL of media/PBS Supplemented with Matrigel. Treatments were initiated when average tumor volume reached 130 to 200 mm^3 for tumor growth evaluation and 350 to 650 mm^3 for single-dose pharmacokinetic/pharmacodynamic (PK/PD). Tumor diameter was measured in two dimensions using a digital caliper, and the tumor volume in mm^3 was calculated using the formula: Volume = ((width)^2 × length)/2. Mice in the study were weighed and tumors were measured twice weekly.
(§2) Tumor-bearing animals were randomized and assigned into groups (n = 1–10/group). The vehicle at 10 mL/kg or RMC-6236 at indicated doses was administered via oral gavage daily, and animals were treated for 28 days, or up to 90 days if PFS was being assessed. […] For single-dose PKPD study, mice were randomized and assigned into groups (n = 3/dose/time point). A single dose of RMC-6236 was administered orally at either 3, 10, or 25 mg/kg. Blood and tissues, including the tumor, brain, colon, ear skin, and muscle, were harvested at indicated time points. Whole blood was collected in K2EDTA Microtainer tubes, incubated for 5 minutes, and snap-frozen in liquid nitrogen. The tissue was either fixed in 10% formalin or snap-frozen in liquid nitrogen for further analysis.
(§3) In tumor volume plots, the average tumor volume of each group was plotted over the course after implantation (except for PDX models, where the x-axis started on the first day of treatment). Control and RMC-6236 groups were compared by two-way repeated-measures ANOVA on the last measurement day of the control group. Percentage change in body weight for each animal on a given day was determined as [(body weight on test article administration end date/body weight on test article administration start date) −1] × 100. The percentage mean tumor volume change from baseline was graphed in the waterfall plots. The mRECIST score was determined based on % mean tumor volume change, mCR is more than 80% regression, mPR is between 30% and 80% regression, mSD is between 30% growth and 30% regression, mPD is more than 30% growth. Progression is defined as tumor volume doubling from baseline and represented with Kaplan–Meier plots. Log-rank test was used to compare vehicle control with treatment groups. Cox Proportional Hazards models were used to estimate hazard ratios between vehicle control and treatment groups. Tumor relapse was defined here as models that were considered mPR or mCR at the response calling date and then rebounded from mean tumor volume regressions to either stable disease or progression when dosed long-term (more than 60 days).

[2] = tested on: NCI-H441 (KRAS^G12V/WT, NSCLC) xenograft; assay: Subcutaneous xenograft antitumor activity; type: in vivo, mouse; conditions: for Tumor Volume: NCI-H441 Tumor Volume Data, dose every 24 h
Description: as §1, §2, §3

[3] = tested on: KP-4 (KRAS^G12D/WT, PDAC) xenograft; assay: Subcutaneous xenograft antitumor activity; type: in vivo, mouse; conditions: KP-4 (25 mg/kg)
Description: as §1, §2, §3

[4] = tested on: HPAC (KRAS^G12D/WT, PDAC) xenograft; assay: Subcutaneous xenograft antitumor activity; type: in vivo, mouse; conditions: HPAC (25 mg/kg)
Description: as §1, §2, §3

[5] = tested on: Capan-2 (KRAS^G12V/WT, PDAC) xenograft; assay: Subcutaneous xenograft antitumor activity; type: in vivo, mouse; conditions: for Tumor Volume: Capan-2 Tumor Volume Data
Description: as §1, §2, §3

[6] = tested on: NCI-H2122 (KRAS^G12C/G12C, NSCLC) xenograft; assay: Subcutaneous xenograft antitumor activity; type: in vivo, mouse; conditions: NCI-H2122 (25 mg/kg)
Description: as §1, §2, §3

[7] = In vitro whole blood-plasma partitioning fitting; type: in vitro ADME, mouse; conditions: for Blood-plasma ratio: Mouse
Description: Tumor PK and PD were added to the model by incorporating blood-plasma partitioning, plasma protein binding, and tumor partitioning and PD parameters.
B:P=B:P0-(Imax*CBIC50+CB)
Where B:P is the blood:plasma partitioning ratio at a specific blood concentration, B:P0 is the fitted blood:plasma partitioning ratio at zero concentration, Imax is the maximal decrease in blood:plasma partitioning, and IC50 is the half-maximal concentration in blood to achieve the lowest blood:plasma partitioning ratio.

CCn1c(-c2cc(N3CCN(C)CC3)cnc2[C@H](C)OC)c2c3cc(ccc31)-c1csc(n1)C[C@H](NC(=O)[C@H]1C[C@@H]1C)C(=O)N1CCC[C@H](N1)C(=O)OCC(C)(C)C2 [RMC-6236]
Anti-Tumor Activity (% regression) [1]: 92.97%
Anti-Tumor Activity (% regression) ([2]; NCI-H441 (25 mg/kg)): 88.0%
mean tumor regression ([2]; NCI-H441, 10 mg/kg daily, 4 weeks): 29%
Tumor Volume ([2]; 1mg/kg, 0 h (baseline)): 155.297 mm^3
Tumor Volume ([2]; 1mg/kg, 72 h): 211.748 mm^3
Tumor Volume ([2]; 1mg/kg, 240 h): 488.795 mm^3
Tumor Volume ([2]; 1mg/kg, 336 h): 652.416 mm^3
Tumor Volume ([2]; 1mg/kg, 408 h): 795.041 mm^3
Tumor Volume ([2]; 1mg/kg, 504 h): 1190.95 mm^3
Tumor Volume ([2]; 1mg/kg, 576 h): 1534.52 mm^3
Tumor Volume ([2]; 1mg/kg, […]): 331.176 mm^3
Tumor Volume ([2]; 5mg/kg, 0 h (baseline)): 155.278 mm^3
Tumor Volume ([2]; 5mg/kg, 72 h): 132.554 mm^3
Tumor Volume ([2]; 5mg/kg, 240 h): 165.633 mm^3
Tumor Volume ([2]; 5mg/kg, 336 h): 208.828 mm^3
Tumor Volume ([2]; 5mg/kg, 408 h): 274.14 mm^3
Tumor Volume ([2]; 5mg/kg, 504 h): 284.303 mm^3
Tumor Volume ([2]; 5mg/kg, 576 h): 324.789 mm^3
Tumor Volume ([2]; 5mg/kg, 672 h): 374.96 mm^3
Tumor Volume ([2]; 5mg/kg, […]): 115.114 mm^3
Tumor Volume ([2]; 10mg/kg, 0 h (baseline)): 155.355 mm^3
Tumor Volume ([2]; 10mg/kg, 72 h): 120.95 mm^3
Tumor Volume ([2]; 10mg/kg, 240 h): 80.5583 mm^3
Tumor Volume ([2]; 10mg/kg, 336 h): 79.7939 mm^3
Tumor Volume ([2]; 10mg/kg, 408 h): 102.218 mm^3
Tumor Volume ([2]; 10mg/kg, 504 h): 74.6022 mm^3
Tumor Volume ([2]; 10mg/kg, 576 h): 87.8761 mm^3
Tumor Volume ([2]; 10mg/kg, 672 h): 105.875 mm^3
Tumor Volume ([2]; 10mg/kg, […]): 91.6508 mm^3
Tumor Volume ([2]; 25mg/kg, 0 h (baseline)): 155.304 mm^3
Tumor Volume ([2]; 25mg/kg, 72 h): 113.104 mm^3
Tumor Volume ([2]; 25mg/kg, 240 h): 58.639 mm^3
Tumor Volume ([2]; 25mg/kg, 336 h): 46.9253 mm^3
Tumor Volume ([2]; 25mg/kg, 408 h): 36.776 mm^3
Tumor Volume ([2]; 25mg/kg, 504 h): 29.9204 mm^3
Tumor Volume ([2]; 25mg/kg, 576 h): 27.7701 mm^3
Tumor Volume ([2]; 25mg/kg, 672 h): 19.397 mm^3
Tumor Volume ([2]; 25mg/kg, […]): 78.2002 mm^3
Anti-Tumor Activity (% regression) ([3]; d14): 48.2%
Anti-Tumor Activity, %TGI ([3]; d28): 89.2 % TGI
Anti-Tumor Activity (% regression) [4]: 93%
Anti-Tumor Activity (% regression) ([5]; Capan-2 (10 mg/kg)): 13%
Anti-Tumor Activity (% regression) ([5]; Capan-2 (25 mg/kg)): 53.0%
mean tumor regression ([5]; Capan-2, 10 mg/kg daily, 4 weeks): 13%
Tumor Volume ([5]; 10mg/kg_Capan2, dose every 24 h, 0 h (baseline)): 166.375 mm^3
Tumor Volume ([5]; 10mg/kg_Capan2, dose every 24 h, 48 h): 174.875 mm^3
Tumor Volume ([5]; 10mg/kg_Capan2, dose every 24 h, 144 h): 156.5 mm^3
Tumor Volume ([5]; 10mg/kg_Capan2, dose every 24 h, 384 h): 177.25 mm^3
Tumor Volume ([5]; 10mg/kg_Capan2, dose every 24 h, 480 h): 157.5 mm^3
Tumor Volume ([5]; 10mg/kg_Capan2, dose every 24 h, 552 h): 152.125 mm^3
Tumor Volume ([5]; 25mg/kg_Capan2, dose every 24 h, 0 h (baseline)): 166.375 mm^3
Tumor Volume ([5]; 25mg/kg_Capan2, dose every 24 h, 48 h): 154.875 mm^3
Tumor Volume ([5]; 25mg/kg_Capan2, dose every 24 h, 144 h): 132.75 mm^3
Tumor Volume ([5]; 25mg/kg_Capan2, dose every 24 h, 384 h): 105 mm^3
Tumor Volume ([5]; 25mg/kg_Capan2, dose every 24 h, 480 h): 90.25 mm^3
Tumor Volume ([5]; 25mg/kg_Capan2, dose every 24 h, 552 h): 86.875 mm^3
Anti-Tumor Activity, %TGI [6]: 99.64 %TGI
E0 ([7]; In vitro Mouse BP Fitting): 5.524
Imax ([7]; In vitro Mouse BP Fitting): 5.199
Blood-plasma ratio ([7]; concentration 0.05 µM): 4.76 and 4.92 and 4.44
Blood-plasma ratio ([7]; concentration 0.1 µM): 7.33 and 6.64 and 6.23
Blood-plasma ratio ([7]; concentration 0.5 µM): 3.87 and 3.54 and 3.48
Blood-plasma ratio ([7]; concentration 1 µM): 4.22 and 4.49 and 4.73
Blood-plasma ratio ([7]; concentration 10 µM): 1.01 and 0.99 and 1.25
blood plasma ratio ([7]; whole blood, Mouse Blood-Plasma Fitting, %CV 7.43, read-out: E0 (blood:plasma partitioning ratio at zero concentration)): 5.52

Source: PMC11149917, “Translational and Therapeutic Evaluation of RAS-GTP Inhibition by RMC-6236 in RAS-Driven Cancers” (Cancer Discovery, 2024)
